Assay results as given in patent US10781224B2, “Bis(oxymethyl)phosphinic acid and biogenic metal salts thereof as regulators of plant growth and development” (priority 2016, dated 2020).

System: winter wheat (Vershin variety)
Assay: Winter wheat seed treatment with BHMPA salts: germinating power (length and mass of roots and sprouts)
Format: in vivo
Method in brief: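 Seeds (50 per Petri dish on two layers of filter paper) soaked 1 h in BHMPA or its Ca, Mg, Na, Co, Mn, Cu or Zn salts at 1·10^−6-1·10^−12%, with water controls. Germination energy read on day 4, germination on day 8 (wheat) or day 7 (rice, corn), as % means of four replicates. Germinating power taken as root and sprout length plus wet and dry mass per 100 seedlings.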

[1] = comparative study, 1·10^−9% solution

## O=P([O-])(CO)CO.O=P([O-])(CO)CO.[Zn+2] [Zn-salt, Zinc BHMPA Salt]
1·10^−6% solution
  Length, root: 9.1 cm
  Length, root, + % to control: −6%
  Length, sprout: 6.9 cm
  Length, sprout, + % to control: −4%
  Mass, dry, root: 0.60 g/100 plantlings
  Mass, dry, root, + % to control: 5%
  Mass, dry, sprout: 0.61 g/100 plantlings
  Mass, dry, sprout, + % to control: −4%
  Mass, wet, root: 2.58 g/100 plantlings
  Mass, wet, root, + % to control: 0%
  Mass, wet, sprout: 4.73 g/100 plantlings
  Mass, wet, sprout, + % to control: −1%
1·10^−7% solution
  Length, root: 10.2 cm
  Length, root, + % to control: 5%
  Length, sprout: 7.3 cm
  Length, sprout, + % to control: 1%
  Mass, dry, root: 0.62 g/100 plantlings
  Mass, dry, root, + % to control: 9%
  Mass, dry, sprout: 0.70 g/100 plantlings
  Mass, dry, sprout, + % to control: 9%
  Mass, wet, root: 2.61 g/100 plantlings
  Mass, wet, root, + % to control: 1%
  Mass, wet, sprout: 4.88 g/100 plantlings
  Mass, wet, sprout, + % to control: 2.5%
1·10^−8% solution
  Length, root: 10.3 cm
  Length, root, + % to control: 6%
  Length, sprout: 7.5 cm
  Length, sprout, + % to control: 4%
  Mass, dry, root: 0.64 g/100 plantlings
  Mass, dry, root, + % to control: 12%
  Mass, dry, sprout: 0.77 g/100 plantlings
  Mass, dry, sprout, + % to control: 20%
  Mass, wet, root: 2.77 g/100 plantlings
  Mass, wet, root, + % to control: 7%
  Mass, wet, sprout: 4.98 g/100 plantlings
  Mass, wet, sprout, + % to control: 5%
1·10^−9% solution
  Length, root: 10.9 cm
  Length, root, + % to control: 12%
  Length, sprout: 7.6 cm
  Length, sprout, + % to control: 5.5%
  Mass, dry, root: 0.69 g/100 plantlings
  Mass, dry, root, + % to control: 21%
  Mass, dry, sprout: 0.82 g/100 plantlings
  Mass, dry, sprout, + % to control: 28%
  Mass, wet, root: 3.58 g/100 plantlings
  Mass, wet, root, + % to control: 38%
  Mass, wet, sprout: 5.13 g/100 plantlings
  Mass, wet, sprout, + % to control: 8%
1·10^−10% solution
  Length, root: 10.8 cm
  Length, root, + % to control: 11%
  Length, sprout: 7.6 cm
  Length, sprout, + % to control: 5.5%
  Mass, dry, root: 0.65 g/100 plantlings
  Mass, dry, root, + % to control: 14%
  Mass, dry, sprout: 0.80 g/100 plantlings
  Mass, dry, sprout, + % to control: 25%
  Mass, wet, root: 3.24 g/100 plantlings
  Mass, wet, root, + % to control: 25%
  Mass, wet, sprout: 4.96 g/100 plantlings
  Mass, wet, sprout, + % to control: 4%
1·10^−11% solution
  Length, root: 10.3 cm
  Length, root, + % to control: 6%
  Length, sprout: 7.3 cm
  Length, sprout, + % to control: 1%
  Mass, dry, root: 0.63 g/100 plantlings
  Mass, dry, root, + % to control: 10.5%
  Mass, dry, sprout: 0.74 g/100 plantlings
  Mass, dry, sprout, + % to control: 16%
  Mass, wet, root: 2.8 g/100 plantlings
  Mass, wet, root, + % to control: 8%
  Mass, wet, sprout: 4.92 g/100 plantlings
  Mass, wet, sprout, + % to control: 3%
1·10^−12% solution
  Length, root: 10.1 cm
  Length, root, + % to control: 4%
  Length, sprout: 7.2 cm
  Length, sprout, + % to control: 0%
  Mass, dry, root: 0.62 g/100 plantlings
  Mass, dry, root, + % to control: 9%
  Mass, dry, sprout: 0.63 g/100 plantlings
  Mass, dry, sprout, + % to control: −1%
  Mass, wet, root: 2.65 g/100 plantlings
  Mass, wet, root, + % to control: 2%
  Mass, wet, sprout: 4.90 g/100 plantlings
  Mass, wet, sprout, + % to control: 3%
[1]
  Length, root: 9.5 cm
  Length, root, + % to control: 9%
  Length, sprout: 6.3 cm
  Length, sprout, + % to control: 2%
  Mass, dry, root: 0.68 g/100 plantlings
  Mass, dry, root, + % to control: 10%
  Mass, dry, sprout: 0.55 g/100 plantlings
  Mass, dry, sprout, + % to control: 8%
  Mass, wet, root: 5.18 g/100 plantlings
  Mass, wet, root, + % to control: 43%
  Mass, wet, sprout: 4.91 g/100 plantlings
  Mass, wet, sprout, + % to control: 24%
